# Assay results taken from US6686344B1, “Organic-arsonic compounds” (Paker Hughes Institute, priority 2003, dated 2004).
# Legend:
# NALM-6 (B-lineage ALL) = experiment: MTT cytotoxicity assay, NALM-6; assay type: cell-based; conditions: Homo sapiens, NALM-6 cells, 24-36 hours incubation
# Description: (§1) The cytotoxicity of compound II was evaluated against two acute lymphoblastic leukemia (ALL) cell lines, NALM-6 (B-lineage ALL), and MOLT-3 (T-lineage ALL) using MTT (3-[4,5-dimethylthiazol-2-yl]-2,5-diphenyl tetrazolium bromide) assay (Boehringer Mannheim Corp., Indianapolis, Ind. The human leukemic cell lines (NALM-6, and MOLT-3) were obtained from the American Type Culture Collection and maintained as a continuous cell line in Dulbecco's modified Eagles's medium supplemented with 10% fetal bovine serum and antibiotics. Briefly, exponentially growing cells were seeded into a 96-well plate at a density of 2.5×10^4 cells/well and incubated for 36 hours at 37° C. prior to exposure to the compound. On the day of treatment, culture medium was carefully aspirated from the wells and replaced with fresh medium containing compound II at concentrations ranging from 0.1 to 250 μM. Triplicate wells were used for each treatment.
# (§2) The cells were incubated with compound II for 24-36 hours at 37° C. in a humidified 5% CO2 atmosphere. […] The absorbance of each well was measured in a microplate reader (Labsystems) at 540 nm and a reference wavelength of 690 nm. […] The percent survival was calculated using the formula: [formula]
# (§3) The IC50 values for cytotoxic activity were determined using Graph-pad Prism software, version 2.0 (San Diego, Calif., USA) and are shown below in Table 1.
# MOLT-3 (T-lineage ALL) = experiment: MTT cytotoxicity assay, MOLT-3; assay type: cell-based; conditions: Homo sapiens, MOLT-3 cells, 24-36 hours incubation
# Description: as §1, §2, §3
structure (smiles),measurement,setting,value
"O=[As](O)(O)c1ccc(N=Nc2ccc(Nc3nc(C(Cl)(Cl)Cl)nc4ccccc34)cc2)cc1 [Compound II, 2-Trichloromethyl-4-4-[4′-(4″-phenylazo)phenylarsonic Acid]-aminoquinazoline]",IC50,NALM-6 (B-lineage ALL),1.1 ± 0.5 µM
same,IC50,MOLT-3 (T-lineage ALL),2 ± 0.8 µM
same,melting point,,> 300 °C
